Results from patent publication US20230201166A1, “METHODS FOR TREATING CANCER BY INHIBITING CARM1” (DANA-FARBER CANCER INSTITUTE, INC., priority 2020, published 2023).

How the values were obtained:
[1] = system: malignant melanoma cell lines; conditions: cited from earlier work
[2] = Toxicity study in C57Bl/6 mice; conditions: 150 mg/kg twice daily, oral gavage, 14 days, versus solvent control
Procedure: Sex and age matched C57Bl/6 mice were randomized into two groups treated twice daily with either CARM1 inhibitor (150 mg/kg) or vehicle via oral gavage for 14 days. Major organs including heart, spleen, kidney, liver, lung and small intestine were harvested for pathological assessment. […] Scale bar=50 μM.

[3] = system: CARM1 activity in tumor cells; test: CARM1 activity in tumor cells (me2BAF155 western blot); type: cell-based, human; conditions: sub-micromolar levels
Procedure: BAF155 is a well-validated target of CARM1. […] Western blots were probed with Abs specific for di-methylated BAF155 protein (me2BAF155), total BAF155 protein and β-actin (loading control).
Whole cell extracts were prepared by lysis and sonication of cells in RIPA buffer [20 mM Tris-HCl (pH 7.5), 150 mM NaCl, 1 mM EDTA, 1 mM EGTA, 1% NP-40, 1% sodium deoxycholate, 2.5 mM sodium pyrophosphate, 1 mM β-glycerophosphate, 1 mM Na3VO4, 1 μg/ml leupeptin] supplemented with Halt Protease and Phosphatase Inhibitor Cocktail (ThermoFisher). Protein concentrations were determined using a Bradford Protein Assay (Bio-Rad). Protein samples (20 […]g) were resolved by SDS-PAGE using 4-12% NuPAGE Novex Bis-Tris mini gels (ThermoFisher) and transferred onto a PVDF membrane (Bio-Rad). Blots were blocked in 5% Blocker powder (Bio-Rad), 0.2% Tween in PBS and then incubated overnight with primary antibodies. Following incubation with secondary detection reagents and subsequent washing, blots were incubated in Western Lightening Plus-ECL substrate (PerkinElmer). Luminescence was captured using a ChemiDoc MP system (Bio-Rad Laboratories).

[4] = system: B16F10-OVA-ZsGreen tumor cells; test: T cell cytotoxicity assay, B16F10-OVA-ZsGreen tumor cells with OT-I CD8 T cells; type: cell-based, murine; conditions: pre-treatment 0.1 μM for 24 hours
Description: FIG. 3K illustrates that inactivation of Carm1 gene in tumor cells elicits tumor immunity, showing sensitization of tumor cells to T cells with a CARM1 inhibitor. […] Vehicle or inhibitor treated tumor cells were co-cultured with OT-I CD8 T cells at indicated E:T ratios (n=7-8 replicates/condition).
A Celigo image cytometer (Nexcelom) was used to study the killing of fluorescent tumor cells by CD8 T cells. Carm1-KO or control-KO B16-OVA-ZsGreen cells were washed with PBS, and 5,000 tumor cells were added per well in flat-bottom 96-well plates (8-10 replicates/group). OT-I CD8 T cells were added at different effector to target ratios. Following 24 or 48 hours of co-culture, the media was removed, and wells were washed with PBS to remove dead tumor cells and CD8 T cells. Live, adherent tumor cells were then counted using the Celigo image cytometer. As an alternative approach, apoptotic tumor cells were counted based on Caspase 3/7 activation. A Caspase-3/7 reagent (Essen Bioscience) was added directly to the culture media (0.5 μM final concentration) after 12, 24 or 48 hours of co-culture of tumor cells with T cells, and positive tumor cells were counted using the image cytometer.

BT549 TNBC cells = test: T cell cytotoxicity assay, BT549 TNBC cells with NY-ESO-1 TCR human CD8 T cells; type: cell-based; conditions: pre-treatment 0.1 μM for 24 hours
Procedure: FIG. 3L illustrates that inactivation of Carm1 gene in tumor cells elicits tumor immunity, showing T cell cytotoxicity assay with human BT549 TNBC and human CD8 T cells that expressed a NY-ESO-1 TCR. […] In FIGS. 3A-3L, two-way ANOVA was used to determine statistical significance for tumor measurements at time points when all mice were alive. Statistical significance for survival of mice in each treatment group were calculated by Log-rank (Mantel-Cox) test. Bar graphs represent data summarized as mean±S.E.M. and were analyzed by unpaired two-sided Mann-Whitney test. Data shown are representative of three experiments. *p<0.05, **p<0.01, ***p<0.001, ****p<0.0001, ns (non-significant).
T cell cytotoxicity assay using human tumor cells was performed using NY-ESO-1 transduced human CD8 T cells and BT549 human triple negative breast cancer cells which were HLA-A02*01 positive and endogenously expressed the NY-ESO-1 antigen. BT549 cells were co-cultured with human CD8 T cells that expressed a NY-ESO-1 TCR at increasing effector to target (E:T) ratios for 12-72 hours. Cytotoxicity was quantified by flow cytometry. All in vitro cytotoxicity assays were performed in human or murine T cell media (without addition of IL-2).

Which “cell stasis, IC50” value [1] does the source give for `CNC[C@@H](O)COc1ccc(Cl)c(-c2nc(-c3c(C)noc3C)c(C)c(N3CC4(CCN(C(=O)OC)CC4)C3)n2)c1` (stereo in doubt) [EZM2302] here?
Its value is “nanomolar range”.

And the “inhibition of PABP1 and SMB methylation, IC50” value [1]?
The value was “nanomolar range”.

And the “histological changes in major organs” value [2]?
Its value is “no histological changes”.

And the weight loss [2]?
The weight loss was “no histological changes was observed in a comprehensive analysis of major organs or weight loss”.

What about the “suppression of CARM1 activity in tumor cells” value [3] of the same compound?
The value was “suppress CARM1 activity”.

And the “sensitization of tumor cells to CD8 T cells” value [4]?
The value was “sensitized them to CD8 T cells”.

What about the “CD8 T cell-mediated cytotoxicity” value (BT549 TNBC cells) of the same compound?
Its value is “enhanced CD8 T cell-mediated cytotoxicity”.
